In brackets after ≈: the same amount, converted by molar mass. Like-named read-outs stand apart in the source and are kept apart here.
What was measured:
[1] = system: Schleiferilactobacillus harbinensis M1; assay: Antibiotic sensitivity, MIC on antibacterial MRS agar plates; type: cell-based; conditions: for MIC: Schleiferilactobacillus harbinensis
Procedure: (§1) According to the criteria for determining bacterial resistance (2012 edition) stipulated by the European Food Safety Agency, antibiotics including ampicillin, vancomycin, gentamicin, kanamycin, streptomycin, erythromycin, clindamycin, tetracycline and chloramphenicol were used to prepare antibacterial stock solutions with a concentration of 5120 μg/mL. They were diluted to the required concentration by a diluent preparation method before use, and were added to the corresponding medium according with certain proportion. 9.0 mL of the modified MRS agar media were added into large test tubes. After sterilizing at 121° C. for 15 min, they were placed in a water bath (50° C.) at a constant temperature for later use. 1.0 mL of the antibacterial diluents were pipetted into the large test tubes, followed by vortexing and mixing immediately. The diluents were then poured into a sterile petri dish, and bacteriostatic plates with a certain drug concentration (μg/mL) were prepared after solidification. For each antibiotics, 8 concentration gradient antibacterial plates were prepared according to a ½ dilution method. […] At the same time, a blank plate without inoculation was used as a control. […] 3 parallel experiments were conducted. The lactic acid bacteria susceptibility result was shown in Table 1 determined according to the relevant standards: […] The second step was the preparation of antibacterial plates: antibiotics including ampicillin, vancomycin, gentamicin, kanamycin, streptomycin, erythromycin, clindamycin, tetracycline and chloramphenicol were used to prepare antibacterial stock solutions at a concentration of […]. The solutions were diluted to the required concentration before use according to a diluent preparation method. 1.0 mL of the antibacterial diluents were pipetted into large test tubes with 9.0 mL of modified MRS agar media, followed by vortexing and mixing immediately. Then, they were poured on sterile plates. After solidification, antibacterial plates with a certain antibiotic concentration (m/mL) were obtained. At the same time, a control plate without antibiotic was prepared. […] At the same time, a blank plate without inoculation was used as a control.

[2] = system: Lacticaseibacillus casei-01; assay: as above; type: cell-based; conditions: for MIC: Lacticaseibacillus
Procedure: as §1

[3] = against S. harbinensis M1, agar plates, 37° C., 16-20 hours, read-out: MIC value
[4] = CASEI01, against L. casei-01, agar plates, 37° C., 16-20 hours, read-out: MIC value

| Compound | MIC [1, 3] | MIC [2, 4] | other results |
| --- | --- | --- | --- |
| CC1(C)S[C@@H]2[C@H](NC(=O)[C@H](N)c3ccccc3)C(=O)N2[C@H]1C(=O)O [ampicillin] | 1 µg/mL (≈ 2.86 µM) | 1 µg/mL (≈ 2.86 µM) | – |
| CN(C)[C@@H]1C(O)=C(C(N)=O)C(=O)[C@@]2(O)C(O)=C3C(=O)c4c(O)cccc4[C@@](C)(O)[C@H]3C[C@@H]12 [tetracycline] | 2 µg/mL (≈ 4.5 µM) | 2 µg/mL (≈ 4.5 µM) | – |
| CCC[C@@H]1C[C@@H](C(=O)N[C@@H]([C@H]2O[C@H](SC)[C@H](O)[C@@H](O)[C@H]2O)[C@H](C)Cl)N(C)C1 [clindamycin] | 0.5 µg/mL (≈ 1.18 µM) | 0.125 µg/mL (≈ 0.294 µM) | – |
| CC[C@H]1OC(=O)[C@H](C)[C@@H](O[C@H]2C[C@@](C)(OC)[C@@H](O)[C@H](C)O2)[C@H](C)[C@@H](O[C@@H]2O[C@H](C)C[C@H](N(C)C)[C@H]2O)[C@](C)(O)C[C@@H](C)C(=O)[C@H](C)[C@@H](O)[C@]1(C)O [erythromycin] | 0.5 µg/mL (≈ 0.681 µM) | 0.5 µg/mL (≈ 0.681 µM) | – |
| gentamicin | – | – | MIC value ([1]; against S. harbinensis M1, agar plates, 37° C., 16-20 hours): 16 µg/mL; MIC value ([2]; against L. casei-01, agar plates, 37° C., 16-20 hours): 16 µg/mL |
| NC[C@H]1O[C@H](O[C@H]2[C@H](O)[C@@H](O[C@H]3O[C@H](CO)[C@@H](O)[C@H](N)[C@H]3O)[C@H](N)C[C@@H]2N)[C@H](O)[C@@H](O)[C@@H]1O [kanamycin] | 16 µg/mL (≈ 33 µM) | 16 µg/mL (≈ 33 µM) | – |
| [H]/N=C(/N)N[C@H]1[C@H](O)[C@@H](O)[C@H](O[C@@H]2O[C@@H](C)[C@](O)(C=O)[C@H]2O[C@@H]2O[C@@H](CO)[C@H](O)[C@@H](O)[C@@H]2NC)[C@@H](N/C(N)=N\[H])[C@@H]1O [streptomycin] | 8 µg/mL (≈ 13.8 µM) | 16 µg/mL (≈ 27.5 µM) | – |
| O=C(N[C@H](CO)[C@H](O)c1ccc([N+](=O)[O-])cc1)C(Cl)Cl [chloramphenicol] | 2 µg/mL (≈ 6.19 µM) | 4 µg/mL (≈ 12.4 µM) | – |
| CN[C@H](CC(C)C)C(=O)N[C@H]1C(=O)N[C@@H](CC(N)=O)C(=O)N[C@H]2C(=O)N[C@H]3C(=O)N[C@H](C(=O)N[C@H](C(=O)O)c4cc(O)cc(O)c4-c4cc3ccc4O)[C@H](O)c3ccc(c(Cl)c3)Oc3cc2cc(c3O[C@@H]2O[C@H](CO)[C@@H](O)[C@H](O)[C@H]2O[C@H]2C[C@](C)(N)[C@H](O)[C@H](C)O2)Oc2ccc(cc2Cl)[C@H]1O [vancomycin] | – | – | MIC ([1]; M1, read-out: MIC value): 2 µg/mL (≈ 1.38 µM); MIC ([2]; CASEI01, read-out: MIC value): 4 µg/mL (≈ 2.76 µM) |

From patent US20230124764A1, “LACTOBACILLUS HARBINENSIS AND APPLICATION THEREOF” (priority 2018, published 2023)
